Measurements published in patent publication US6677324B1, “Combination preparation of estrogen and anti-estrogen” (Schering Aktiengesellschaft, priority 1998, dated 2004).

Assays:
uterus and bone = experiment: Selective bone action test: uterus weight, uterine epithelium depth and trabecular bone density of proximal tibia in ovarectomized rats; format: in vivo, rat; conditions: combination with 17β-oestradiol, ovarectomized rats 3 months old, treated 28 days, FIGS. 1-3
Description: (§1) In the FIG. 1 means: control (only solvent), 2: 0.3 μg of oestradiol, 3: 75 μg of test substance, 4: 75 μg of test substance+0.03 μg of oestradiol, 5: 75 μg of test substance+0.1 μg of oestradiol, 6: 75 μg of test substance+0.3 μg of oestradiol, 7: 75 μg of test substance+1.0 μg of oestradiol, 8: 75 μg of test substance+3.0 μg of oestradiol.
as §1, with “μg of oestradibl, 3: 75” for “μg of oestradiol, 3: 75”
The doses of the oestrogen and antioestrogen to be used for the selective bone action test must be established to begin with in preliminary investigations.
The dose of the antioestrogen to be used is determined by an antiuterus growth test in the oestradiol-substituted, ovarectomized rat. […]
After 28 days, the animals are killed and the uterus weight, as well as the trabecular bone density in the proximal tibia, is measured. The uterus weight is determined by weighing the uterus moist weight immediately after organ removal. The trabecular bone density is determined ex vivo by bone density measurements in the secondary spongiosa of the proximal tibia using a QCT (Stratec XCT 960A).

central nervous system = conditions: Biegon et al. 1996; cited from earlier work

SMILES | selective action of the combination on bone versus uterus (uterus and bone) | action in the central nervous system (central nervous system)
CN(CCCCC[C@@H]1Cc2cc(O)ccc2[C@@H]2[C@@H]1[C@@H]1CC[C@H](O)[C@@]1(C)C[C@@H]2F)CCCSCCCC(F)(F)C(F)(F)F [Example 1, 11β-fluoro-7α-{5-[N-methyl-N-3-(4,4,5,5,5-pentafluoropentylthio)propylamino]pentyl}-oestra-1,3,5(10)-triene-3,17β-diol] | selectively active | 
CC/C(=C(\c1ccccc1)c1ccc(OCCN(C)C)cc1)c1ccccc1 [tamoxifen] |  | acts there as an oestroaenic antagonist
